# Tests used:
# [1] = benzoyl peroxide, aqueous solution; cited from earlier work
# horseradish peroxidase = target: T1, horseradish peroxidase (Armoracia rusticana, UniProt P00433); assay: Comparison of compounds 1a-e at pH 8.9, time course and total intensity of chemiluminescence; type: biochemical; conditions: 0.01 mM acridan, 0.1M phosphate pH 8.9, 6.2 mM H2O2, 2.25 mM p-iodophenol, 1×10^-13 mol HRP; for I max (RLU), peak light intensity: 0.5% Tween 20, 1 mM EDTA
# T1 sequence (P00433 31-338 limits assumed): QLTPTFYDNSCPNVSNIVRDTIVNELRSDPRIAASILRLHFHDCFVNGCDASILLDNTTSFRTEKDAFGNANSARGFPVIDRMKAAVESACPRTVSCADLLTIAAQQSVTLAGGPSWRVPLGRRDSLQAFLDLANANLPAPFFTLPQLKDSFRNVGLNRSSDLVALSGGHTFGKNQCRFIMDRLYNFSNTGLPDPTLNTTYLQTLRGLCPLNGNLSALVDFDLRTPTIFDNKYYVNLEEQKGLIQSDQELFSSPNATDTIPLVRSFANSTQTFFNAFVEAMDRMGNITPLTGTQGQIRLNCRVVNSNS
# Protocol: (§1) The experiments in the following examples were performed using a Turner Designs TD-20e luminometer fitted with neutral density filter for light attenuation. Data collection, analysis and display were software controlled. Constant temperature was maintained by means of an external circulating water bath connected to the luminometer.
# A 200 μL volume of a formulation containing 0.01 mM acridan compound 1a-e in 0.1M phosphate buffer, pH 8.9, […] (6.2 mM) H2 O2, 2.25 mM p-iodophenol, 0.5% (w/w) Tween 20 and 1 mM EDTA was reacted with 1×10^-13 mol of horseradish peroxidase. […] Compared below are the peak light intensity (Imax) in relative light units (RLU), the time to maximum light intensity (tmax) and total light output.
# [2] = Improvement of detection by surfactants, background luminescence of 1b solution without peroxidase; conditions: Tween 20 0.5%-1%; no added peroxidase
# Text: The improvement occurs through minimizing the background chemiluminescence in the absence of added peroxidase, possibly due to a slowing of the autoxidative decomposition of the ester. In one experiment, Tween 20 (0.5%-1%) decreased the background luminescence from a solution of 1b by a factor of 65 compared to a similar solution lacking the surfactant.
# HRP [3] = target: T2, HRP (Armoracia rusticana, UniProt P00433); assay: Optimization of enhancer and peroxide concentration, HRP-catalyzed oxidation of 1b; type: biochemical, horseradish; conditions: at the best level, 7×10^-16 mol HRP, 15 min, 0.1M tris pH 8.0, substrate 1b
# T2 sequence (P00433 31-338 limits assumed): T1 sequence (P00433 31-338 limits assumed)
# Protocol: as §1
# Enhancement of light emission from the HRP-catalyzed oxidation of 1b was studied using p-iodophenol. A series of concentrations of p-iodophenol (0.23 mM-4.5 mM) was used in 0.1M tris buffer, pH 8.0. Signal to background ratios obtained after incubation with 7×10^-16 mol of HRP for 15 min were compared using different assay reagents 1b (0.1 mM-0.05 mM) and peroxide (0.2 mM-0.8 mM)]. The best compromise between sensitivity and concentration was obtained using 1.1 mMp-iodophenol with 0.8 mMperoxide and 0.05 mM 1b. At the best level, 2500-fold enhancement in chemiluminescence intensity (compared to an identical solution containing no enhancer) was obtained using p-iodophenol with 7×10^-16 mol of enzyme.
# HRP [4] = target: T2, HRP; assay: Improvement of detection by phenol enhancers; type: biochemical, horseradish; conditions: 2.25 mM enhancer, 0.1 mM 1b, 0.8 mM H2O2, 0.5% Tween 20, 0.1M tris pH 8.5, 25° C., 1×10^-15 mol HRP, 30 min
# Protocol: as §1
# To 220 μL of a formulation containing 0.1 mM 1b, 2.25 mM enhancer, 0.8 mM H2 O2, 0.5% (w/w) Tween 20 and 1 mM EDTA in 0.1M tris buffer, pH 8.5 at 25° C. an aliquot containing 1×10^-15 mol of HRP was injected and the chemiluminescence at 30 min was measured.
Compound,"I max (RLU), peak light intensity (horseradish peroxidase)","I total (RLU), total light output (horseradish peroxidase)","t max (min), time to maximum light intensity (horseradish peroxidase)",S/B (HRP [4]),further results
c1ccc2c(c1)Cc1ccccc1N2 [acridan],–,–,–,–,chemiluminescence efficiency (OCL) [1]: 3×10^-7
Tween 20,–,–,–,–,"decrease of background luminescence from a solution of 1b (factor, compared to a similar solution lacking the surfactant) [2]: 65"
Oc1ccc(I)cc1 [p-iodophenol],–,–,–,600,enhancement in chemiluminescence intensity (compared to an identical solution containing no enhancer) (HRP [3]): 2500 fold
"CCCCCCCCCCCCOS(=O)(=O)[O-].[Na+] [SDS, sodium dodecyl sulfate]",–,–,–,–,"decrease of background luminescence from a solution of 1b (factor, compared to a similar solution lacking the surfactant) [2]: similarly lowers background luminescence"
Oc1ccc(-c2ccccc2)cc1 [p-phenylphenol],–,–,–,200,–
"Oc1ccc2ccccc2c1 [Compound 2-naphthol, 2-naphthol]",–,–,–,138,–
O=C(O)C=Cc1ccc(O)cc1 [p-hydroxycinnamic acid],–,–,–,9,–

# The next lines start with results.
"I max (RLU), peak light intensity (horseradish peroxidase)","I total (RLU), total light output (horseradish peroxidase)","t max (min), time to maximum light intensity (horseradish peroxidase)",Compound,S/B (HRP [4]),further results
8160 RLU,1.5 × 10^6 RLU,1.4 min,Cc1ccc(S(=O)(=O)N(C(=O)C2c3ccccc3N(C)c3ccccc32)c2ccccc2)cc1 [Compound 1e],–,–
247 RLU,ca. 6 × 10^5 RLU,9.6 min,"CN1c2ccccc2C(C(=O)Oc2ccccc2)c2ccccc21 [Compound 1a, Phenyl 10-methylacridan-9-carboxylate]",–,–
24 RLU,3.6 × 10^4 RLU,7.8 min,"CN1c2ccccc2C(C(=O)Oc2cccc(O)c2)c2ccccc21 [Compound 1c, 3'-Hydroxyphenyl 10-methylacridan-9-carboxylate]",–,–
992 RLU,7.4 × 10^5 RLU,1.8 min,"CN1c2ccccc2C(C(=O)Oc2ccc3cc(O)ccc3c2)c2ccccc21 [Compound 1d, 6'-Hydroxynaphthyl 10-methylacridan-9-carboxylate]",–,–

# — patent publication US5491072A, “N-alkylacridan carboxyl derivatives useful for chemiluminescent detection” (Lumigen, Inc., priority 1993, dated 1996)
